Measured values published in US20230312587A1, “PTERIDINONE COMPOUNDS AND USES THEREOF” (Vertex Pharmaceutical Incorporated, priority 2018, published 2023).

Tests used:
Colo-205 cells = test: Calcium flux assay (FLIPR Calcium 5); assay type: cell-based; settings: FLIPR Calcium 5, measured over 36 minutes
Procedure: Compounds described herein induced ER stress by causing intracellular calcium flux. Calcium flux was measured in Colo-205 cells using the FLTPR® Calcium 5 Assay Kit according to manufacter's protocol (Molecular Devices, Cat. #R8186) on a FLIPR3 system (Molecular Devices). Calcium flux is measured over 36 minutes. The Colo-205 calcium flux assay data are summarized in Table 47: A<0.6 μM; 0.6 μM≤B<2.0 μM; 2.0 μM≤C<10.0 μM; D≥10.0 μM.

[1] = tested on: Colo205-TCF/LEF-Luciferase (Luc) tumor; test: In vivo inhibition of TCF/LEF reporter activity in Colo-205 tumors; set-up: concentration or dose not given beside the values; settings: TCF/LEF luciferase reporter in Colo-205 tumors, nu/nu mice, oral gavage
In short: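 Female nu/nu mice carried subcutaneous Colo205-TCF/LEF-luciferase tumours (200–500 mm^3), n=4 per group. Compound was given by oral gavage in 1:3:5:1 EtOH:DMSO:PEG-400:H2O at 10 ml/kg, with vehicle as control. Luciferase activity in tumour lysates (Steady-Glo) was normalised to BCA protein.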

| EC50 (Colo-205 cells; Homo sapiens, COLO 205, 0.6 h) [nM] | EC50 (Colo-205 cells) [nM] | Compound | Percent Remaining Activity at 8 hrs after Dosing [1] [%] |
| --- | --- | --- | --- |
| 2000 to 10000 |  | Cc1nc(N[C@H]2CC[C@H](n3ccc(C(F)(F)F)n3)C2)nc2c1NC(=O)[C@H](C)N2C (single isomer, unassigned) [Compound 310] |  |
| < 600 |  | Cc1nc(N[C@@H]2CC[C@@H](n3ccc(C(F)(F)F)n3)C2)nc2c1NC(=O)[C@H](C)N2C (single isomer, unassigned) [Compound 311] |  |
| 600 to 2000 |  | Cc1nc(N[C@H]2CC[C@H](Oc3ccc(C(F)(F)F)nc3)C2)nc2c1NC(=O)[C@H](C)N2C (single isomer, unassigned) [Compound 376] |  |
|  | < 600 | Cc1nc(N[C@H]2CC[C@H](Oc3ccc(C(F)(F)F)nc3)C2)nc2c1NC(=O)[C@H](C)N2C (single isomer, unassigned) [Compound 377] | 33 |
| < 600 |  | Cc1nc(NCc2cnn(Cc3ccc(F)cc3)c2)nc2c1NC(=O)[C@H](C)N2C [Compound 4, (7S)-2-(((1-(4-fluorobenzyl)-1H-pyrazol-4-yl)methyl)amino)-4,7,8-trimethyl-7,8-dihydropteridin-6(5H)-one] | 23 |
| < 600 |  | COc1c(F)cc(Cn2cc(CNc3nc(C)c4c(n3)N(C)[C@@H](C)C(=O)N4)cn2)cc1F [Compound 46, (7S)-2-(((1-(3,5-difluoro-4-methoxybenzyl)-1H-pyrazol-4-yl)methyl)amino)-4,7,8-trimethyl-7,8-dihydropteridin-6(5H)-one] | 20 |
| 600 to 2000 |  | Cc1nc(NCc2cnn(Cc3ccc(F)nc3)c2)nc2c1NC(=O)[C@H](C)N2C [Compound 77] | 30 |
| 600 to 2000 |  | Cc1nc(NCc2cnn(Cc3cccc(C(C)C)c3)c2)nc2c1NC(=O)[C@H](C)N2C [Compound 80, (7S)-2-(((1-(3-isopropylbenzyl)-1H-pyrazol-4-yl)methyl)amino)-4,7,8-trimethyl-7,8-dihydropteridin-6(5H)-one] | 34 |
| < 600 |  | COc1cc(F)ccc1Cn1cc(CNc2nc(C)c3c(n2)N(C)[C@@H](C)C(=O)N3)cn1 [Compound 83, (7S)-2-(((1-(4-fluoro-2-methoxybenzyl)-1H-pyrazol-4-yl)methyl)amino)-4,7,8-trimethyl-7,8-dihydropteridin-6(5H)-one] |  |
| 600 to 2000 |  | Cc1cc(F)ncc1Cn1cc(CNc2nc(C)c3c(n2)N(C)[C@@H](C)C(=O)N3)cn1 [Compound 94, (7S)-2-(((1-((6-fluoro-4-methylpyridin-3-yl)methyl)-1H-pyrazol-4-yl)methyl)amino)-4,7,8-trimethyl-7,8-dihydropteridin-6(5H)-one] |  |
| < 600 |  | Cc1nc(NCc2cnn(Cc3cc(F)c(F)c(F)c3)c2)nc2c1NC(=O)[C@H](C)N2C [Compound 122, (7S)-4,7,8-trimethyl-2-(((1-(3,4,5-trifluorobenzyl)-1H-pyrazol-4-yl)methyl)amino)-7,8-dihydropteridin-6(5H)-one] | 16 |
| 600 to 2000 |  | Cc1nc(NCc2cnn([C@H]3CCN(C4CCC(F)(F)CC4)C3)c2)nc2c1NC(=O)[C@H](C)N2C [Compound 142, (7S)-2-(((1-((S)-1-(4,4-difluorocyclohexyl)pyrrolidin-3-yl)-1H-pyrazol-4-yl)methyl)amino)-4,7,8-trimethyl-7,8-dihydropteridin-6(5H)-one] |  |
| 2000 to 10000 |  | Cc1nc(NCc2ccc(-n3cc(C(F)(F)F)cn3)nc2)nc2c1NC(=O)[C@H](C)N2C [Compound 143, (S)-4,7,8-trimethyl-2-(((6-(4-(trifluoromethyl)-1H-pyrazol-1-yl)pyridin-3-yl)methyl)amino)-7,8-dihydropteridin-6(5H)-one] |  |
| < 600 |  | Cc1nc(NCc2cnn(Cc3ccc(C(F)(F)F)cc3)c2)nc2c1NC(=O)[C@H](C)N2C [Compound 149, (7S)-4,7,8-trimethyl-2-(((1-(4-(trifluoromethyl)benzyl)-1H-pyrazol-4-yl)methyl)amino)-7,8-dihydropteridin-6(5H)-one] | 17 |
| < 600 |  | Cc1nc(NCc2cnn([C@@H]3C[C@@H]3c3ccc(F)cc3)c2)nc2c1NC(=O)[C@H](C)N2C [Compound 154, (7S)-2-(((1-((1R,2R)-2-(4-fluorophenyl)cyclopropyl)-1H-pyrazol-4-yl)methyl)amino)-4,7,8-trimethyl-7,8-dihydropteridin-6(5H)-one] | 24 |
| 600 to 2000 |  | Cc1nc(NCc2cnn(Cc3cc(C(F)(F)F)nn3C)c2)nc2c1NC(=O)[C@H](C)N2C [Compound 160, (7S)-4,7,8-trimethyl-2-(((1-((1-methyl-3-(trifluoromethyl)-1H-pyrazol-5-yl)methyl)-1H-pyrazol-4-yl)methyl)amino)-7,8-dihydropteridin-6(5H)-one] | 18 |
| < 600 |  | Cc1nc(NCc2cnn([C@@H]3CCN(c4ccc(F)cc4)C3)c2)nc2c1NC(=O)[C@H](C)N2C [Compound 170, (7S)-2-(((1-((R)-1-(4-fluorophenyl)pyrrolidin-3-yl)-1H-pyrazol-4-yl)methyl)amino)-4,7,8-trimethyl-7,8-dihydropteridin-6(5H)-one] |  |
| 2000 to 10000 |  | Cc1ccc(Cn2cc(CNc3nc(C)c4c(n3)N(C)[C@@H](C)C(=O)N4)cn2)cn1 [Compound 173, (7S)-4,7,8-trimethyl-2-(((1-((6-methylpyridin-3-yl)methyl)-1H-pyrazol-4-yl)methyl)amino)-7,8-dihydropteridin-6(5H)-one] |  |
| 600 to 2000 |  | Cc1nc(NCc2cnn([C@@H](C)c3ccc(C(F)(F)F)nc3)c2)nc2c1NC(=O)[C@H](C)N2C [Compound 174, (7S)-4,7,8-Trimethyl-2-(((1-((S)-1-(6-(trifluoromethyl)pyridin-3-yl)ethyl)-1H-pyrazol-4-yl)methyl)amino)-7,8-dihydropteridin-6(5H)-one] | 22 |
| 600 to 2000 |  | CN1C(=O)C(C)(C)N(C)c2nc(NCc3cnn(Cc4cccnc4C(F)(F)F)c3)ncc21 [Compound 237, 5,7,7,8-Tetramethyl-2-(((1-((2-(trifluoromethyl)pyridin-3-yl)methyl)-1H-pyrazol-4-yl)methyl)amino)-7,8-dihydropteridin-6(5H)-one] |  |
| 600 to 2000 |  | Cc1nc(N[C@H]2C[C@H](Oc3ccc(F)cc3)C2)nc2c1N(C)C(=O)[C@H](C)N2C [Compound 250, (7S)-2-((trans-3-(4-fluorophenoxy)cyclobutyl)amino)-4,5,7,8-tetramethyl-7,8-dihydropteridin-6(5H)-one] |  |
| 600 to 2000 |  | Cc1nc(N[C@H]2C[C@H](COc3cc(F)c(F)c(F)c3)C2)nc2c1NC(=O)[C@H](C)N2C [Compound 258, (7S)-4,7,8-trimethyl-2-((trans-3-((3,4,5-trifluorophenoxy)methyl)-cyclobutyl)amino)-7,8-dihydropteridin-6(5H)-one] |  |
| 600 to 2000 |  | Cc1nc(N[C@H]2C[C@@H](Sc3ccc(F)cc3)C2)nc2c1N(C)C(=O)[C@H](C)N2C [Compound 305, (7S)-2-((cis-3-((4-fluorophenyl)thio)cyclobutyl)amino)-4,5,7,8-tetramethyl-7,8-dihydropteridin-6(5H)-one] |  |
| 600 to 2000 |  | Cc1nc(N[C@H]2C[C@H](Sc3ccc(F)cc3)C2)nc2c1N(C)C(=O)[C@H](C)N2C [Compound 307, (7S)-2-((trans-3-((4-fluorophenyl)thio)cyclobutyl)amino)-4,5,7,8-tetramethyl-7,8-dihydropteridin-6(5H)-one] |  |
| 600 to 2000 |  | Cc1nc(N[C@H]2C[C@H](Sc3cc(F)c(F)c(F)c3)C2)nc2c1NC(=O)[C@H](C)N2C [Compound 329, (7S)-4,7,8-trimethyl-2-((trans-3-((3,4,5-trifluorophenyl)thio)-cyclobutyl)amino)-7,8-dihydropteridin-6(5H)-one] |  |
| 600 to 2000 |  | Cc1nc(N[C@H]2C[C@@H](COc3ccc(C(F)(F)F)cn3)C2)nc2c1NC(=O)[C@H](C)N2C [Compound 356, (7S)-4,7,8-trimethyl-2-((cis-3-(((5-(trifluoromethyl)pyridin-2-yl)oxy)methyl)cyclobutyl)amino)-7,8-dihydropteridin-6(5H)-one] |  |
| 600 to 2000 |  | Cc1nc(N[C@H]2C[C@H](Oc3ccc(F)nc3)C2)nc2c1NC(=O)[C@H](C)N2C [Compound 357, (7S)-2-((trans-3-((6-fluoropyridin-3-yl)oxy)cyclobutyl)amino)-4,7,8-trimethyl-7,8-dihydropteridin-6(5H)-one] |  |
| ≥ 10000 |  | Cc1nc(N(C)Cc2cnn(Cc3ccc(C(F)(F)F)nc3)c2)nc2c1NC(=O)[C@H](C)N2C [Compound 403, (7S)-4,7,8-trimethyl-2-(methyl((1-((6-(trifluoromethyl)pyridin-3-yl)methyl)-1H-pyrazol-4-yl)methyl)amino)-7,8-dihydropteridin-6(5H)-one] |  |
| ≥ 10000 |  | CC(=O)N(Cc1cnn(Cc2ccc(C(F)(F)F)nc2)c1)c1nc(C)c2c(n1)N(C)[C@@H](C)C(=O)N2 [Compound 405, (7S)-N-((1-((6-(trifluoromethyl)pyridin-3-yl)methyl)-1H-pyrazol-4-yl)methyl)-N-(4,7,8-trimethyl-6-oxo-5,6,7,8-tetrahydropteridin-2-yl)acetamide] |  |
|  | 600 to 2000 | (7S)-4,7,8-trimethyl-2-((trans-3-(3,4-difluorophenoxy)cyclobutyl)amino)-7,8-dihydropteridin-6(5H)-one [Compound 251] |  |
